Results from US20060024414A1, “Methods for preserving food products” (Kraft Foods Holdings, Inc., priority 2004, published 2006).

Assays:
Listeria monocytogenes [1] = settings: cells sensitized with the antioxidant at the time of pressure treatment; Mackey et al. 1995; cited from earlier work
Listeria monocytogenes [2] = settings: model milk system; Payne et al. 1989; cited from earlier work
[3] = tested on: Listeria monocytogenes OSY-8578; experiment: Inoculated bagged Vienna sausage challenge, warm enrichment/plating for survivors; format: cell-based; settings: about 5 min; for Percentage of Bags Testing Positive For Listeria in Batch of 5 (±S.D.): sausage about 10^6 CFU/g; for Percentage of Bags Testing Positive For Listeria in Batch of 3 (±S.D.): TBHQ 300 ppm, sausage about 10^6 per g
Description: (§1) In another embodiment, a food substrate processed according to methods of this invention has nondetectable levels of Listeria (even if contamination has occurred). […] The mixture is incubated at 37° C. for 48 hours, followed by the enrichment (mixture) being streaked on Oxford agar or […] agar, and observing the streaked plate for the presence/absence of Listeria. […] Tailing effects also may be reduced or eliminated by methods of the present invention. The presence or absence of other microorganisms may be detected using similar techniques modified for the specific microorganism under consideration. The edible hydroquinone was tert-butylhydroquinone (TBHQ) at a level of either 0 or 100 ppm. The tert-butylhydroquinone was a food grade material obtained from Sigma Chemical Co. (St. Louis, Mo.). The lantibiotic was nisin at a level of either 0 or 100 IU/g. The nisin used was either pure nisin or a commercial nisin ([…]®), both from Aplin & Barrett, Ltd. (Trowbridge, England). […] Nisin samples were prepared by dissolving nisin powder in distilled water, adjusting the pH to 2 with HCl, and sterilizing at 121° C. for 10 minutes. Samples were prepared and used on the same day for each experiment. Three strains of Listeria monocytogenes were used in these challenge studies. Listeria monocytogenes Scott A, OSY-8578, and OSY-328, were obtained from the Food Safety Laboratory of the Department of Food Science and Technology at The Ohio State University (Columbus, Ohio). All experiments were carried out with cultures in stationary phase (grown in tryptose broth (TB; Difco Laboratories, Detroit, Mich.) for 18 hours at 37° C.). […] The hydrostatic pressure used was 600 MPa. For comparison purposes, samples were also treated with no hydrostatic pressure (i.e., under atmospheric pressure). A hydrostatic food processor (Quintus QFP-6, ABB Autoclave Systems, Inc., Columbus, Ohio) was used with a pressure transmitting fluid containing a water/propylene glycol (1:1 vol/vol; Houghto-Safe 620-TY, Houghton International, Inc., Valley Forge, Pa.). Samples were held in a refrigerator before processing and placed on ice following treatment. The temperature during each run was monitored using a thermocouple and a datalogger (Campbell Scientific, Inc., Logan, Utah). […] Canned Vienna sausage (Armour®, The Dial Corporation, Scottsdale, Ariz.) was purchased from local grocery stores. […] One milliliter of each additive, alone or in combinations, was added, and the bags were sealed using vacuum […], Kansas City, Mo.). […] Non-pressurized samples were treated in a similar manner except that no pressure was applied. After high pressure processing, bags were opened aseptically. […] The presence or absence of L. monocytogenes survivors in the samples was determined by streaking the incubated mixture onto Oxford agar and/or […] agar. Each test run consisted of 5 tested bags at a given set of variables; the experiment was repeated 4 times. Treatment conditions required for essentially total elimination of L. monocytogenes were determined using essentially the same materials and procedures as used in Example 1 except that the nisin level was 0, 100, or 200 IU/g; the hydroquinone level was 0, 100, 200, or 300 ppm; and each experiment was repeated 3 times.

[4] = tested on: Listeria monocytogenes OSY-328; experiment: as above; format: cell-based; settings: about 5 min; for Percentage of Bags Testing Positive For Listeria in Batch of 5 (±S.D.): sausage about 10^6 CFU/g; for Percentage of Bags Testing Positive For Listeria in Batch of 3 (±S.D.): TBHQ 300 ppm, sausage about 10^6 per g
Description: as §1

[5] = tested on: Listeria monocytogenes Scott A; experiment: as above; format: cell-based; settings: about 5 min; for Percentage of Bags Testing Positive For Listeria in Batch of 5 (±S.D.): sausage about 10^6 CFU/g; for Percentage of Bags Testing Positive For Listeria in Batch of 3 (±S.D.): TBHQ 300 ppm, sausage about 10^6 per g
Description: as §1

[6] = tested on: Listeria monocytogenes OSY-8578; experiment: Pressure inactivation in phosphate buffer, plate count; format: cell-based; settings: TBHQ about 100 ppm
Description: (§2) Three strains of Listeria monocytogenes identified in Example 1 were grown in tryptose broth for 18 hours at 37° C. Cultures were centrifuged at 10,000 rpm for 15 minutes at 4° C. Cell pellets were resuspended in phosphate buffer (pH 7.0) and the cell population of each strain was adjusted to 10^9 CFU/ml. Tert-butylhydroquinone was added at about 100 ppm (10% vol/vol TBHQ/culture). Preparation of sample bags and the high pressure treatment procedures were same as indicated in Example 1. Pressures tested were 300, 500, and 700 MPa. Control and high pressure-treated treated samples were serially diluted in 0.1% peptone water and spread-plated on tryptose agar. The plates were incubated at 37° C. for 48-72 hours and the colonies were counted.
(§3) The detection level for enumeration was 10 CFU/ml. The initial population of OSY-328 averaged about 8.9 logs; therefore, more than 7.9 log reduction indicates below the detection level.

[7] = tested on: Listeria monocytogenes OSY-328; experiment: as above; format: cell-based; settings: TBHQ about 100 ppm
Description: as §2, §3

[8] = tested on: Listeria monocytogenes Scott A; experiment: as above; format: cell-based; settings: TBHQ about 100 ppm
Description: as §2, §3

[9] = tested on: Listeria monocytogenes strains; experiment: Tailing behaviour during pressure treatment in phosphate buffer; format: cell-based; settings: combination of high pressure (300, 500, 700 MPa) and TBHQ about 100 ppm
Description: as §2, §3

[10] = Run 3: 0 MPa, nisin 0 IU/g, TBHQ 100 ppm
[11] = Run 7: 600 MPa, nisin 0 IU/g, TBHQ 100 ppm
[12] = 300 MPa, 0 min (come-up, immediate depressurization)
[13] = 500 MPa, 0 min (come-up, immediate depressurization)
[14] = 700 MPa, 0 min (come-up, immediate depressurization)
[15] = Run 2: 0 MPa, nisin 100 IU/g, TBHQ 0 ppm
[16] = Run 6: 600 MPa, nisin 100 IU/g, TBHQ 0 ppm

COc1ccc(O)c(C(C)(C)C)c1 [BHA, butylated hydroxyanisole]
resistance of Listeria monocytogenes to high hydrostatic pressure treatment (sensitizing effect) (Listeria monocytogenes [1]): reduced

Cc1cc(C(C)(C)C)c(O)c(C(C)(C)C)c1 [BHT, Butylated hydroxy toluene]
resistance of Listeria monocytogenes to high hydrostatic pressure treatment (sensitizing effect) (Listeria monocytogenes [1]): not effective

CCCOC(=O)c1ccc(O)cc1 [Propyl paraben]
antimicrobial activity against Listeria monocytogenes (Listeria monocytogenes [2]): only consistently active inhibitor

CC(C)(C)c1cc(O)ccc1O [TBHQ, tert-butylhydroquinone]
Percentage of Bags Testing Positive For Listeria in Batch of 5 (±S.D.) [3, 10]: 100%
Percentage of Bags Testing Positive For Listeria in Batch of 5 (±S.D.) [3, 11]: 25 (±30) %
Percentage of Bags Testing Positive For Listeria in Batch of 3 (±S.D.) ([3]; Run 10: 0 MPa, nisin 0 IU/g): 100%
Percentage of Bags Testing Positive For Listeria in Batch of 3 (±S.D.) ([3]; Run 15: 600 MPa, nisin 0 IU/g): 0%
Percentage of Bags Testing Positive For Listeria in Batch of 5 (±S.D.) [4, 10]: 100%
Percentage of Bags Testing Positive For Listeria in Batch of 5 (±S.D.) [4, 11]: 20 (±16) %
Percentage of Bags Testing Positive For Listeria in Batch of 3 (±S.D.) ([4]; Run 10: 0 MPa, nisin 0 IU/g): 100%
Percentage of Bags Testing Positive For Listeria in Batch of 3 (±S.D.) ([4]; Run 15: 600 MPa, nisin 0 IU/g): 0%
Percentage of Bags Testing Positive For Listeria in Batch of 5 (±S.D.) [5, 10]: 100%
Percentage of Bags Testing Positive For Listeria in Batch of 5 (±S.D.) [5, 11]: 15 (±30) %
Percentage of Bags Testing Positive For Listeria in Batch of 3 (±S.D.) ([5]; Run 10: 0 MPa, nisin 0 IU/g): 100%
Percentage of Bags Testing Positive For Listeria in Batch of 3 (±S.D.) ([5]; Run 15: 600 MPa, nisin 0 IU/g): 0%
Average Log Reduction [6, 12]: 0 log
Average Log Reduction ([6]; 300 MPa, 1 min): 0.2 log
Average Log Reduction ([6]; 300 MPa, 5 min): 0.2 log
Average Log Reduction ([6]; 300 MPa, 10 min): 0.8 log
Average Log Reduction ([6]; 300 MPa, 20 min): 3.8 log
Average Log Reduction ([6]; 300 MPa, 30 min): 5.0 log
Average Log Reduction ([6]; 300 MPa, 40 min): 5.7 log
Average Log Reduction ([6]; 300 MPa, 50 min): 7.2 log
Average Log Reduction [6, 13]: 0.2 log
Average Log Reduction ([6]; 500 MPa, 1 min): 7.2 log
Average Log Reduction ([6]; 500 MPa, 5 min): 7.6 log
Average Log Reduction ([6]; 500 MPa, 10 min): ≧8.0 log
Average Log Reduction ([6]; 500 MPa, 20 min): 7.9 log
Average Log Reduction ([6]; 500 MPa, 30 min): 7.8 log
Average Log Reduction ([6]; 500 MPa, 40 min): ≧8.0 log
Average Log Reduction [6, 14]: 7.6 log
Average Log Reduction ([6]; 700 MPa, 0.5 min): 7.7 log
Average Log Reduction ([6]; 700 MPa, 1 min): 7.8 log
Average Log Reduction ([6]; 700 MPa, 5 min): ≧8.0 log
Average Log Reduction ([6]; 700 MPa, 10 min): ≧8.0 log
Average Log Reduction ([6]; 700 MPa, 15 min): ≧8.0 log
Average Log Reduction ([6]; 700 MPa, 20 min): ≧8.0 log
Average Log Reduction [7, 12]: 0 log
Average Log Reduction ([7]; 300 MPa, 1 min): 0 log
Average Log Reduction ([7]; 300 MPa, 5 min): 0 log
Average Log Reduction ([7]; 300 MPa, 10 min): 0.2 log
Average Log Reduction ([7]; 300 MPa, 20 min): 1.0 log
Average Log Reduction ([7]; 300 MPa, 30 min): 1.6 log
Average Log Reduction ([7]; 300 MPa, 40 min): 2.3 log
Average Log Reduction ([7]; 300 MPa, 50 min): 2.4 log
Average Log Reduction ([7]; 300 MPa, 60 min): 3.1 log
Average Log Reduction [7, 13]: 0.2 log
Average Log Reduction ([7]; 500 MPa, 5 min): 7.6 log
Average Log Reduction ([7]; 500 MPa, 10 min): 7.8 log
Average Log Reduction ([7]; 500 MPa, 20 min): ≧7.9 log
Average Log Reduction ([7]; 500 MPa, 30 min): 7.8 log
Average Log Reduction ([7]; 500 MPa, 40 min): ≧7.9 log
Average Log Reduction ([7]; 500 MPa, 50 min): ≧7.9 log
Average Log Reduction [7, 14]: 5.3 log
Average Log Reduction ([7]; 700 MPa, 1 min): ≧8.0 log
Average Log Reduction ([7]; 700 MPa, 5 min): ≧8.0 log
Average Log Reduction ([7]; 700 MPa, 10 min): ≧7.9 log
Average Log Reduction ([7]; 700 MPa, 15 min): ≧7.9 log
Average Log Reduction ([7]; 700 MPa, 20 min): 7.8 log
Average Log Reduction ([7]; 700 MPa, 30 min): ≧8.0 log
Average Log Reduction [8, 12]: 0 log
Average Log Reduction ([8]; 300 MPa, 1 min): 0 log
Average Log Reduction ([8]; 300 MPa, 5 min): 2.2 log
Average Log Reduction ([8]; 300 MPa, 10 min): 6.5 log
Average Log Reduction ([8]; 300 MPa, 20 min): 7.3 log
Average Log Reduction ([8]; 300 MPa, 30 min): 7.3 log
Average Log Reduction ([8]; 300 MPa, 40 min): ≧8.0 log
Average Log Reduction [8, 13]: 3.8 log
Average Log Reduction ([8]; 500 MPa, 1 min): 7.9 log
Average Log Reduction ([8]; 500 MPa, 5 min): 8.0 log
Average Log Reduction ([8]; 500 MPa, 10 min): ≧8.0 log
Average Log Reduction ([8]; 500 MPa, 15 min): ≧8.0 log
Average Log Reduction ([8]; 500 MPa, 20 min): ≧8.0 log
Average Log Reduction ([8]; 500 MPa, 30 min): ≧8.0 log
Average Log Reduction [8, 14]: 7.7 log
Average Log Reduction ([8]; 700 MPa, 0.5 min): 7.5 log
Average Log Reduction ([8]; 700 MPa, 1 min): ≧8.0 log
Average Log Reduction ([8]; 700 MPa, 2 min): ≧8.0 log
Average Log Reduction ([8]; 700 MPa, 5 min): ≧8.0 log
Average Log Reduction ([8]; 700 MPa, 10 min): ≧8.0 log
Average Log Reduction ([8]; 700 MPa, 15 min): ≧8.0 log
tailing phenomenon [9]: eliminated the tailing phenomenon

nisin (ITSISLCTPGCKTGALMGCNMKTATCHCSIHVSK; not fully specified; Lantibiotic nisin-A; UniProt P13068 24-57, looked up) [lantibiotic; antimicrobial polypeptide produced by Lactococcus lactis; pure nisin or commercial Nisaplin from Aplin & Barrett]
Percentage of Bags Testing Positive For Listeria in Batch of 5 (±S.D.) [3, 15]: 100%
Percentage of Bags Testing Positive For Listeria in Batch of 5 (±S.D.) [3, 16]: 30 (±38) %
Percentage of Bags Testing Positive For Listeria in Batch of 5 (±S.D.) [4, 15]: 100%
Percentage of Bags Testing Positive For Listeria in Batch of 5 (±S.D.) [4, 16]: 10 (±20) %
Percentage of Bags Testing Positive For Listeria in Batch of 5 (±S.D.) [5, 15]: 100%
Percentage of Bags Testing Positive For Listeria in Batch of 5 (±S.D.) [5, 16]: 15 (±19) %
